≈ marks a conversion by molar mass, not a printed value. Entries after “also recorded” stand apart in the source; their conditions may differ. Structures can show the parent of a compound that is named as a salt.
What was measured:
[1] = system: C. violaceum 026 sensor strain with AHL producer E. cloacae 31298 (violacein production); test: Quorum sensing (QS) inhibition, parallel inoculation disk diffusion; type: cell-based, Chromobacterium violaceum; details: disc with 10 μL compound, starting concentration ½ MIC; 24–48 h
Experimental: The QS inhibitory effect of selenocompounds was examined on the AHL producer E. cloacae strain and C. violaceum sensor bacterial strain. These strains were inoculated in parallel. The QS inhibition was monitored by agar diffusion method on LB* agar plate as described previously. Filter paper discs (7.0 mm in diameter) were placed between the parallel inoculated strains and impregnated with 10 μL compounds. Starting concentration of the compounds was ½ MIC. The agar plates were incubated at room temperature (20 °C) for 24–48 h and the inhibition of violacein production was measured.

[2] = system: MRC-5 human embryonal lung fibroblast cells; test: Cytotoxicity assay (MTT); type: cell-based; details: MRC-5 cells
Experimental: The adherent MRC-5 human embryonal lung fibroblast cells were cultured in 96-well flat-bottomed microtiter plates, using EMEM supplemented with 10% heat-inactivated fetal bovine serum. The density of the cells was adjusted to 1 × 10^4 cells in 100 μL per well, the cells were seeded overnight at 37 °C, 5% CO2, then the medium was removed from the plates containing the cells, and the dilutions of selenocompounds previously made in a separate plate were added to the cells in 200 μL.
The culture plates were incubated at 37 °C for 24 h; at the end of the incubation period, 20 μL of MTT (thiazolyl blue tetrazolium bromide, Sigma) solution (from a stock solution of 5 mg/mL) was added to each well. After incubation at 37 °C for 4 h, 100 μL of sodium dodecyl sulfate (SDS; Sigma) solution (10% in 0.01 M HCI) was added to each well and the plates were further incubated at 37 °C overnight. Cell growth was determined by measuring the optical density (OD) at 540/630 nm with Multiscan EX ELISA reader (Thermo Labsystems, Cheshire, WA, USA). Inhibition of the cell growth was determined according to the formula below:IC50 = 100 − [(ODsample − ODmedium control)/(ODcell control − ODmedium control)] × 100(1)
Results are expressed in terms of IC50, defined as the inhibitory dose that reduces the growth of the cells exposed to the tested compounds by 50%.

[3] = system: S. aureus ATCC 25923; test: Real-time ethidium bromide accumulation assay; type: cell-based, Staphylococcus aureus; set-up: key to Relative Fluorescence Index (RFI): RFI = (RFtreated − RFuntreated)/RFuntreated at minute 60; details: for Relative Fluorescence Index (RFI): S. aureus ATCC 25923, ½ MIC, minute 60; for EPI activity (in words): reference (sensitive) S. aureus, 60 min
Experimental: (§1) The impact of compounds on EB accumulation was determined by the automated EB method using a CLARIOstar Plus plate reader (BMG Labtech, UK). Firstly, the bacterial strain was incubated until it reached an optical density (OD) of 0.6 at 600 nm. The culture was washed with phosphate buffered saline (PBS; pH 7.4) and centrifuged at 13,000× g for 3 min, the cell pellet was re-suspended in PBS. The compounds were added at ½ MIC concentration to PBS containing a non-toxic concentration of EB (1 µg/mL). Then, 50 μL of the EB solution containing the compound were transferred into 96-well black microtiter plate (Greiner Bio-One Hungary Kft, Hungary), and 50 μL of bacterial suspension (OD600 0.6) were added to the each well. Then, the plates were placed into the CLARIOstar plate reader, and the fluorescence was monitored at excitation and emission wavelengths of 530 nm and 600 nm every minute for one hour on a real-time basis. From the real-time data, the activity of the compounds, namely the relative fluorescence index (RFI) of the last time point (minute 60) of the EB accumulation assay, was calculated according to the following formula:RFI = (RFtreated − RFuntreated)/RFuntreated(2) where RFtreated is the relative fluorescence (RF) at the last time point of EB retention curve in the presence of an inhibitor, and RFuntreated is the RF at the last time point of the EB retention curve of the untreated control having the solvent control (DMSO).

[4] = system: S. aureus MRSA 272123; test: Real-time ethidium bromide accumulation assay; type: cell-based, Staphylococcus aureus; details: for Relative Fluorescence Index (RFI): S. aureus MRSA 272123, ½ MIC, minute 60; for EPI activity (in words): resistant S. aureus MRSA, 60 min
Experimental: as §1

[5] = system: S. Typhimurium SE03 ΔacrA; test: Real-time ethidium bromide accumulation assay; type: cell-based, Salmonella enterica serovar Typhimurium; details: S. Typhimurium SE03 ΔacrA; ½ MIC; minute 60
Experimental: as §1

[6] = system: S. Typhimurium SE39 ΔtolC; test: Real-time ethidium bromide accumulation assay; type: cell-based, Salmonella enterica serovar Typhimurium; details: S. Typhimurium SE39 ΔtolC; ½ MIC; minute 60
Experimental: as §1

[7] = system: Staphylococcus aureus ATCC 25923; test: MIC determination by microdilution method; type: cell-based; details: S. aureus ATCC 25923
Experimental: (§2) The minimum inhibitory concentrations (MICs) of compounds were determined according to the Clinical and Laboratory Standard Institute guidelines (CLSI). MIC values of the compounds were determined by visual inspection. The solvent was also assayed to ensure there was no antibacterial effect and the concentration (1 v/v%) applied in the assays had no antibacterial activity. DMSO was used at subinhibitory concentration (1 v/v%) in the assays.

[8] = system: S. aureus MRSA 272123; test: MIC determination by microdilution method; type: cell-based; details: Staphylococcus aureus; S. aureus MRSA 272123; read-out: MIC
Experimental: as §2

[9] = system: S. Typhimurium SE03 ΔacrA; test: MIC determination by microdilution method; type: cell-based, Salmonella enterica serovar Typhimurium; details: Salmonella enterica
Experimental: as §2

[10] = system: S. Typhimurium SE01 Wild-Type; test: MIC determination by microdilution method; type: cell-based, Salmonella enterica serovar Typhimurium; details: Salmonella enterica; S. Typhimurium SE01 wild-type; read-out: MIC
Experimental: as §2

[11] = system: S. Typhimurium SE02 ΔacrB; test: MIC determination by microdilution method; type: cell-based, Salmonella enterica serovar Typhimurium; details: Salmonella enterica
Experimental: as §2

[12] = system: S. Typhimurium SE39 ΔtolC; test: MIC determination by microdilution method; type: cell-based, Salmonella enterica serovar Typhimurium; details: Salmonella enterica
Experimental: as §2

[13] = system: S. Typhimurium SE01 Wild-Type; test: Real-time ethidium bromide accumulation assay; type: cell-based, Salmonella enterica serovar Typhimurium; details: ½ MIC, minute 60
Experimental: as §1

[14] = system: S. Typhimurium SE02 ΔacrB; test: Real-time ethidium bromide accumulation assay; type: cell-based, Salmonella enterica serovar Typhimurium; details: S. Typhimurium SE02 ΔacrB; ½ MIC; minute 60
Experimental: as §1

[15] = system: S. aureus MRSA 272123; test: Resistance modulation assay (checkerboard) with TET or CIP; type: cell-based, Staphylococcus aureus; details: for Interaction with CIP: MRSA strain; for X-fold reduction of MIC of CIP: compound at ½ MIC, with CIP
Experimental: (§3) The resistance modulation effect of compounds with ciprofloxacin (CIP) and tetracycline (TET) antibiotics were evaluated by the checkerboard method on S. aureus strains. Briefly, CIP or TET was diluted in a 96-well microtiter plate by two-fold serial dilution in MH broth and then the compounds were added at subinhibitory concentrations (½ MIC). In this assay, only the tested compounds with well-defined MIC values were tested. Finally, 10^−4 dilution of the overnight bacterial culture in MH was added to each well. The final volume was 200 µL in each well. The microtiter plates were incubated at 37 °C for 18 h. MIC values in the presence of the antibiotics alone and in combination with Se-compounds were determined by visual inspection.

[16] = system: S. aureus ATCC 25923; test: as above; type: cell-based, Staphylococcus aureus
Experimental: as §3

[17] = system: S. aureus MRSA; test: Biofilm formation using crystal violet; type: cell-based, Staphylococcus aureus
Experimental: (§4) The anti-biofilm effect of the tested compounds against S. aureus strains and wild-type S. Typhimurium SE01 was measured using crystal violet (CV; 0.1% (v/v)). This dye is used to detect the total biofilm biomass formed. Overnight cultures were diluted to OD of 0.1 at 600 nm in TSB medium. Then, the bacterial cultures were added to 96-well microtiter plates and the compounds were added at ½ MIC concentration. The final volume was 200 μL in each well. The microtiter plates were incubated at 30 °C for 48 h with gentle agitation (100 rpm). After the incubation period, TSB medium was discarded, and the plates were washed with tap water to remove unattached cells. Then 200 μL crystal violet was added to the wells and incubated for 15 min at room temperature. Then, CV was removed from the wells and the plates were washed again with tap water, and 200 μL of 70% ethanol was added to the wells. Finally, the biofilm formation was determined by measuring the OD at 600 nm using Multiscan EX ELISA plate reader (Thermo Labsystems, Cheshire, WA, USA). The anti-biofilm effect of compounds was expressed in the percentage (%) of decrease in biofilm formation.

[18] = system: reference S. aureus strain (ATCC 25923); test: Biofilm formation using crystal violet; type: cell-based, Staphylococcus aureus; details: sensitive (reference) S. aureus
Experimental: as §4

[19] = Staphylococcus aureus, ATCC25923

Compound: CC(CN1c2ccccc2Sc2ccccc21)N(C)C (stereo not shown) [Promethazine, promethazine, reference compound]
- QS zone of inhibition [1]: 46 mm

Compound: COC(=O)C[Se]C(=O)c1ccc(C(=O)[Se]CC(=O)OC)cc1 [Se-E1]
- QS zone of inhibition [1]: 41 mm
- IC50 ([2]; Homo sapiens, MRC5, 24 h): > 75 µM
- IC50 ([2]; 24 h): 77.9 µM
- Relative Fluorescence Index (RFI) [3]: 0.98
- EPI activity (in words) [3]: effective
- Relative Fluorescence Index (RFI) [4]: 0.19
- EPI activity (in words) [4]: effective
- Relative Fluorescence Index (RFI) [5]: 0.03
- Relative Fluorescence Index (RFI) [6]: 0.15
- MIC [7]: 12.5 µM (≈ 5.45 µg/mL)
- MIC [7, 19]: 12.5 µM (≈ 5.45 µg/mL)
- MIC [8]: 100 µM (≈ 43.6 µg/mL)
- MIC [9]: > 100 µM
- MIC [10]: > 100 µM
- MIC [11]: > 100 µM
- MIC [12]: > 100 µM
- Relative Fluorescence Index (RFI) [13]: −0.10
- Relative Fluorescence Index (RFI) [14]: −0.03

Compound: COC(=O)C[Se]C(=O)c1cc(C(=O)[Se]CC(=O)OC)cc(C(=O)[Se]CC(=O)OC)c1 [Se-E3]
- IC50 ([2]; Homo sapiens, MRC5, 24 h): > 75 µM
- IC50 ([2]; 24 h): 76.6 µM
- Relative Fluorescence Index (RFI) [3]: 4.15
- EPI activity (in words) [3]: most prominent EPI activity; also recorded: significantly effective pump inhibition
- Relative Fluorescence Index (RFI) [4]: 0.47
- EPI activity (in words) [4]: most prominent EPI activity; also recorded: significantly effective pump inhibition
- Relative Fluorescence Index (RFI) [5]: 0.27
- Relative Fluorescence Index (RFI) [6]: 0.25
- Interaction with CIP [15]: synergism
- X-fold reduction of MIC of CIP ([15]; S. aureus MRSA 272123): 2 fold
- X-fold reduction of MIC of TET ([16]; S. aureus ATCC 25923, compound at ½ MIC, with TET): 2 fold
- Interaction with TET ([16]; methicillin-susceptible S. aureus ATCC 25923): synergism
- Anti-biofilm effect (in words) [17]: significant biofilm inhibition
- Anti-biofilm effect (in words) [18]: significant biofilm inhibition
- MIC [7]: 12.5 µM (≈ 7.69 µg/mL)
- MIC [7, 19]: 12.5 µM (≈ 7.69 µg/mL)
- MIC [8]: 100 µM (≈ 61.5 µg/mL)
- MIC [9]: > 100 µM
- MIC [10]: > 100 µM
- MIC [11]: > 100 µM
- MIC [12]: > 100 µM
- Relative Fluorescence Index (RFI) [13]: 0.26
- Relative Fluorescence Index (RFI) [14]: 0.08

Compound: CC(=O)C[Se]C(=O)c1ccc(C(=O)[Se]CC(C)=O)cc1 [Se-K1]
- QS zone of inhibition [1]: 37 mm
- IC50 ([2]; Homo sapiens, MRC5, 24 h): 0.54 µM
- Relative Fluorescence Index (RFI) [3]: 0.1
- Relative Fluorescence Index (RFI) [4]: −0.15
- Relative Fluorescence Index (RFI) [5]: 0.17
- Relative Fluorescence Index (RFI) [6]: 0.27
- Interaction with CIP [15]: synergism
- X-fold reduction of MIC of CIP ([15]; S. aureus MRSA 272123): 2 fold
- MIC [7]: 0.39 µM (≈ 0.158 µg/mL)
- MIC [7, 19]: 0.39 µM (≈ 0.158 µg/mL)
- MIC [8]: 1.56 µM (≈ 0.631 µg/mL)
- MIC [10]: 50 µM (≈ 20.2 µg/mL)
- Relative Fluorescence Index (RFI) [13]: −0.16
- Relative Fluorescence Index (RFI) [14]: 0.10

Compound: CN(C)[C@@H]1C(O)=C(C(N)=O)C(=O)[C@@]2(O)C(O)=C3C(=O)c4c(O)cccc4[C@@](C)(O)[C@H]3C[C@@H]12 [TET, tetracycline-hydrochloride, reference compound]
- MIC of the antibiotic alone ([15]; S. aureus MRSA 272123, no selenocompound): 14.06 µM
- MIC of the antibiotic alone ([16]; S. aureus ATCC 25923, no selenocompound): 0.88 µM

Reference: article PMC7232442, “Biofilm Eradication by Symmetrical Selenoesters for Food-Borne Pathogens” (Microorganisms, 2020)
